Results on 2 compounds are retold here after US20100273700A1, “USE OF A PEPTIDE AS A THERAPEUTIC AGENT” (priority 2007, published 2010).

For one series, the system named is CEM-SS cells. The experiment in a line: Cytotoxicity in the HIV-1 assay (MTS cell viability). The settings on record: CEM-SS cells plus peptide only; peptide 10 micrograms per ml; MTS.
The subject of series [1] is A549 cells. In words: Propidium iodide cell cycle assay. Format: cell-based, Human. To be noted: 10 micrograms per ml, 24 hours, FACS.
The test system of another series is Pseudomonas aeruginosa. The experiment in a line: Pseudomonas aeruginosa assay. Format: cell-based. The settings on record: peptide 10 micrograms per ml, read visually.
A further series has as its system HCMV strain AD169. In words: HCMV plaque reduction assay. Format: cell-based. To be noted: MRC-5 cells; peptide 10 micrograms per ml; 7-10 days. The source says:
Ganciclovir was used as positive control.
For orientation: Plaques are areas of infected cells; plaque reduction assays count them against a control.

A further series deals with MRSA. The experiment in a line: Methicillin Resistant Staphylococcus Aureus (MRSA) assay. The format is cell-based. To be noted: peptide 10 micrograms per ml, read visually.
Series [2] concerns Human Peripheral Blood Mononuclear Cells (PBMC). In words: T cell proliferation assay (PHA, 3H-thymidine). Format: cell-based. To be noted: 10 micrograms per ml, 3H-thymidine incorporation. For orientation: Incorporation of labelled thymidine or its analogues reports DNA synthesis.
For series [3], the system named is Primary Human endothelial cells (HUVEC). The experiment in a line: Endothelial cell migration assay. The format is cell-based. To be noted: 10 micrograms per ml, 22 hours.
The subject of series [4] is A549 cells. In words: Apoptosis induction assay (Annexin-5). To be noted: 24 hours exposure. Format: cell-based, Human.
Protocol: Human A549 cells (carcinomic human alveolar basal epithelial cells) were utilized in the experiments employing the Annexin-5 apoptosis assay. […] Test peptide-micrograms per ml—were exposed for 24 hours to the A549 cells before they were analyzed for signs of apoptosis.
Series [5] is described as follows: Cytotoxicity testing in MRC-5 cells (CellTiter 96). To be noted: human, MRC-5 cells (embryonal lung fibroblasts).
The next series concerns Interleukin-2 (IL-2). The experiment in a line: Th1/Th2 cytokine profiling assay: IL-2. To be noted: Ovalbumin-restimulated spleen cells; 10 micrograms per ml; 72 hours. The format is cell-based, Balb/c mice.
Another series concerns TNF alpha. The experiment in a line: TNF alpha production assay (LPS-stimulated macrophages, ELISA). The format is cell-based, human. The settings on record: 10 micrograms per ml, lipopolysaccharide 200 ng/ml, overnight. The text has this: Not stimulated macrophages served as negative background control.
(ELISA stands for enzyme-linked immunosorbent assay.)

The nature of series [6]: Cytotoxicity in the HBV assay (dye uptake cell viability). To be noted: human; HepG2-2.2.15 cells; test peptide 10 micrograms per ml; dye uptake assay (% cell control). The format is cell-based.
The test system of another series is Streptococcus pneumoniae. In words: Streptococcus pneumoniae assay. To be noted: peptide 10 micrograms per ml, read visually. Format: cell-based. The source says: Results from Streptococcus pneumoniae assay:
In another series the test system is Interferon-γ (IFN-γ). The experiment in a line: Th1/Th2 cytokine profiling assay: IFN-γ. The settings on record: Ovalbumin-restimulated spleen cells; 10 micrograms per ml; 72 hours. Format: cell-based, Balb/c mice.
A short description of series [7]: Cytotoxicity in the HIV-1 assay (MTS cell viability). The settings on record: human, CEM-SS cells (uninfected, cells plus peptide only).
Series [8] relates to hepatitis B virus (HBV) ayw strain in HepG2-2.2.15 cells. The experiment in a line: HBV experimental assay system (secreted HBV DNA, TaqMan PCR). To be noted: test peptide 10 micrograms per ml; six days; HBV DNA in supernatant. The format is cell-based.
Another series relates to HUVEC. The experiment in a line: Endothelial tube formation assay. The settings on record: 10 micrograms per ml, 20 hours. The format is cell-based, Human. The source says:
Positive control was vehicle only.

The test system of another series is Interleukin-5 (IL-5). In words: Th1/Th2 cytokine profiling assay: IL-5. The format is cell-based, Balb/c mice. The settings on record: Ovalbumin-restimulated spleen cells; 10 micrograms per ml; 72 hours.
A further series concerns RAW 264.7 cells. The experiment in a line: Phagocytosis assay (Fluorescein-labeled Escherichia coli). The format is cell-based, Mouse. The settings on record: 10 micrograms per ml, flow cytometry.
Series [9] deals with A549 cells. In words: Apoptosis prevention assay (C2 ceramide, Annexin-5). The settings on record: A549 cells pretreated 30 min, 10 micrograms per ml. Format: cell-based, Human.
The subject of series [10] is Human Peripheral Blood Mononuclear Cells (PBMC). The experiment in a line: B cell proliferation assay (SAC plus Interleukin-2, 3H-thymidine). Format: cell-based. The settings on record: 10 micrograms per ml, 3H-thymidine incorporation.
In another series the test system is Interleukin-4 (IL-4). In words: Th1/Th2 cytokine profiling assay: IL-4. Format: cell-based, Balb/c mice. To be noted: Ovalbumin-restimulated spleen cells; 10 micrograms per ml; 72 hours.
Series [11] relates to Tumor Necrosis Factor-α (TNF-α). The experiment in a line: Th1/Th2 cytokine profiling assay: TNF-α. Format: cell-based, Balb/c mice. To be noted: Ovalbumin-restimulated spleen cells; 10 micrograms per ml; 72 hours.
Description: (§1) The Balb/c mice (originated in 1923, it is a popular strain and is used in many different research disciplines. Also classified as an inbred from the production of 20 or more successive brother-sister matings, the Balb/c mouse is albino and small in size) were immunized on Days 1, 15, and 29 with Ovalbumin (Ovalbumin is the main protein found in egg white, commonly used to stimulate an immunological reaction in test animals) in PBS (5 micrograms/injection). On day 50, spleens of the mice were harvested (3 weeks after last boost with Ovalbumin). Cells were cultured (2×10^5/well in triplicate) and incubated with culture medium or test peptide—10 micrograms per ml—for 30 min. Thereafter, additional Ovalbumin was added to the cells at 10 micrograms/ml for in vitro restimulation of the cells. 72 hours later, cell supernatants were harvested and assayed using the Becton Dickinson Mouse Th1/Th2 Cytokine CBA Kit.

Description for Interferon-γ (IFN-γ): as §1
Description for Interleukin-2 (IL-2): as §1
Description for Interleukin-4 (IL-4): as §1
Description for Interleukin-5 (IL-5): as §1

For the compound `Cc1cn([C@H]2C[C@H](N=[N+]=[N-])[C@@H](CO)O2)c(=O)[nH]c1=O` [AZT, reference compound], the “% Cell viability” value in the series with CEM-SS cells came to 97%.

The term % inhibition denotes the share of the control response that was lost under treatment. As usually defined, the viability is a read-out of living cells in per cent, often relative to untreated cells. Turning to `CC(C)C[C@H](NC(=O)[C@H](Cc1ccccc1)NC(=O)CNC(=O)CNC(=O)[C@@H](N)Cc1ccc(O)cc1)C(=O)N[C@@H](CCCNC(=N)N)C(=O)N[C@@H](CCCNC(=N)N)C(=O)N[C@@H](CCC(N)=O)C(=O)N[C@@H](Cc1ccccc1)C(=O)N[C@@H](CCCCN)C(=O)N[C@H](C(=O)N[C@H](C(=O)N[C@H](C(=O)O)[C@@H](C)O)C(C)C)C(C)C` [Dynorphin B], in the series with A549 cells [1], the “Cell cycle analysis G0/G1” value was 59.5, the “Cell cycle analysis G2/M” value was determined as 8.3 and the “Cell cycle analysis S” value is recorded as 32.2. In addition, the “% inhibition” value in the series on Pseudomonas aeruginosa is given as 0.0%. Besides, the “% plaque reduction” value in the series on HCMV strain AD169 is 1.0%. Further, the “% inhibition” value in the series on MRSA stood at 0.0%. Further, the “% of PHA induced control” value in [2] is recorded as 107.1%. In addition, in series [3], the “% inhibition of migration” value is recorded as 57%. Further, the “% of induction” value in the series with A549 cells [4] was determined as 1.2%. The same compound returned a viability at 144 h in [5] of 100%. The “IL-2 spleen cells (% of control)” value in the series on Interleukin-2 (IL-2) is reported as 134.2 % of control. In addition, the “% of LPS induction” value in the series on TNF alpha came to 97.8%. The viability at 144 h, 10 micrograms per ml in series [6] amounted to 89.7%. For the same compound, the “% inhibition” value in the series with Streptococcus pneumoniae was determined as 100.0%. Besides, in the series on Interferon-γ (IFN-γ), the “IFNγ spleen cells; TH1 response (% of control)” value is listed as 73.9 % of control. For the same compound, the “% Cell viability” value in the series with CEM-SS cells was “toxic”. The viability at 10 micrograms per ml in [7] is 37%. Also, the “% inhibition of HBV replication in HEP G2 cells” value in series [8] is 45.7%. Further, the “% inhibition of tube formation” value with HUVEC was 11%. For the same compound, the “IL-5 spleen cells; TH2 response (% of control)” value in the series on Interleukin-5 (IL-5) is 82.0 % of control. Further, the “% of control phagocytosis” value with RAW 264.7 cells stood at 102.9%. Moreover, in the series with A549 cells [9], the “% prevention of ceramide induced apoptosis” value is 0.0%. Also, in series [10], the “% of SAC/IL2 induced control” value is listed as 104.8%. Moreover, the “IL-4 spleen cells; TH2 response (% of control)” value with Interleukin-4 (IL-4) is on record as 208.2 % of control. Moreover, the “TNF-a spleen cells; TH1 response (% of control)” value in [11] was 105.2 % of control.
